“And” between values parts separate entries of the source, which are not always exact repeats. Equal entries are not always repeated. Structures can show the parent of a compound that is named as a salt. Where two headings read alike, the source gives them in different places.
Experiments:
[1] = test system: CD-1 mice; test: d-Amphetamine-induced hyperlocomotor activity
[2] = test system: CD-1 mice; test: Spontaneous locomotor activity; type: in vivo
[3] = test system: CD-1 mice; test: MK-801-induced hyperlocomotor activity
[4] = test system: Albino Swiss mice; test: Four-plate test
[5] = biological target: T1, serotonin 5-HT2A receptors (Rattus norvegicus, UniProt P14842); test: Radioligand binding assay, 5-HT2A receptors; details: rat brain tissues; for IC50: read-out: 5-HT2A IC50 [nM] ± SEM; for Ki: read-out: 5-HT2A Ki [nM] ± SEM
T1 construct: from tissue; host or cells: rat brain tissues

[6] = biological target: T2, serotonin 5-HT1A receptors (Rattus norvegicus, UniProt P19327); test: Radioligand binding assay, 5-HT1A receptors; details: for IC50: rat brain tissues, read-out: 5-HT1A IC50 [nM] ± SEM
T2 construct: from tissue; host or cells: rat brain tissues
T2 sequence (P19327 1-422): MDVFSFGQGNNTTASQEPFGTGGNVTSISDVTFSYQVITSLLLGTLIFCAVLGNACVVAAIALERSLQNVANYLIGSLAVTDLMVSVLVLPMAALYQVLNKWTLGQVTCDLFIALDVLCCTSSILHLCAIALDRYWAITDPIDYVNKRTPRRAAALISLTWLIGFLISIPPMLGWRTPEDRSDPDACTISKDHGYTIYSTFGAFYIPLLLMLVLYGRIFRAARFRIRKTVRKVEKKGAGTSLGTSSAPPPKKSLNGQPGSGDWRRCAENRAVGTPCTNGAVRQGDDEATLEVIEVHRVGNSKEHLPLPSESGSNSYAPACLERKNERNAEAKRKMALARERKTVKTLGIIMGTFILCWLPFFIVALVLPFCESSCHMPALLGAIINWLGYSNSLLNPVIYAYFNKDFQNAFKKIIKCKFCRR
Description: All compounds were tested for their affinities for 5-HT1A, 5-HT2A, and D2 receptors according to previously described procedures (Stefanowicz et al. [2016]).
Competition binding studies were performed according to a previously described procedure in rat brain tissues (Stefanowicz et al. [2016]).

[7] = test system: Albino Swiss mice; test: Forced swim test; details: last 4 min of session
[8] = biological target: dopamine D2 receptors (Rattus norvegicus, UniProt P61169); test: Radioligand binding assay, D2 receptors
[9] = biological target: T1, serotonin 5-HT2A receptors; set-up: method as in Słowiński et al. 2011, 2013; Stefanowicz et al. 2016; details: earlier lead structures, Fig. 1/Fig. 2; ref Słowiński et al. 2011, 2013; Stefanowicz et al. 2016; cited from earlier work
[10] = 1.25 mg/kg i.p. 30 min before test
[11] = 2.5 mg/kg i.p. 30 min before test
[12] = 5 mg/kg i.p. 30 min before test
[13] = 10 mg/kg i.p. 30 min before test

T1 sequence (P14842 whole entry): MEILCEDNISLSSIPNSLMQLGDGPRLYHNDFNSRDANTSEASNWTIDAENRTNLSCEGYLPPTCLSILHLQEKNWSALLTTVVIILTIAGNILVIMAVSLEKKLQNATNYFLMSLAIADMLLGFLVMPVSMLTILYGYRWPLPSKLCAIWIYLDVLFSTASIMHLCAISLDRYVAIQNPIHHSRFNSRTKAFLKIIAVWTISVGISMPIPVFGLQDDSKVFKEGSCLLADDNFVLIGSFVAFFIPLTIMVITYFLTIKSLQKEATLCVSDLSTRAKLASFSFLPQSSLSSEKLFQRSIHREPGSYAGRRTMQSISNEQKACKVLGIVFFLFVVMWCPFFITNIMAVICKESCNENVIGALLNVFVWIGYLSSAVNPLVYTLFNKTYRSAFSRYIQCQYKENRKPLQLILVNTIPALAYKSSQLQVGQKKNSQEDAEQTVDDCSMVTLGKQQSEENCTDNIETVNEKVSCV
dopamine D2 receptors, sequence (P61169 1-415 isoform P61169-2): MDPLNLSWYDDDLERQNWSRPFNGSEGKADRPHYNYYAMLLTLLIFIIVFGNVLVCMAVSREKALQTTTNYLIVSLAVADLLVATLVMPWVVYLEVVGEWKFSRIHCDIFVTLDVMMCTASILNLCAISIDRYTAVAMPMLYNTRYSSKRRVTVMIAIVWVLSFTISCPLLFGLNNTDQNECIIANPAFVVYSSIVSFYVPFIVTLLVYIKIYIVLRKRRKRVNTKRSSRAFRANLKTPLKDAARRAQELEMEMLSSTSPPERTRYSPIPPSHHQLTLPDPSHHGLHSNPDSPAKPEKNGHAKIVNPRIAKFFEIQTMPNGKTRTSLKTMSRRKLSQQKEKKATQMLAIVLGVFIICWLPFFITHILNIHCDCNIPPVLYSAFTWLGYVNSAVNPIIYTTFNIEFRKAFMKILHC

Cc1ccc(CN2C3CCC2CC(NC(=O)c2ccc4ccccc4n2)C3)cc1 (stereo not drawn) [Compound 12i, N-[8-(4-methylbenzyl)-8-azabicyclo[3.2.1]oct-3β-yl)]-quinoline-2-carboxamide oxalate]
Number of crossings/60 min Mean ± SEM ([1]; compound 5 mg/kg i.p. + d-amphetamine 2.5 mg/kg s.c.): 1771.3 ± 470.4; p < 0.01 vs. amph.; ns vs. contr crossings/60 min | Number of crossings/60 min Mean ± SEM ([1]; compound 10 mg/kg i.p. + d-amphetamine 2.5 mg/kg s.c.): 2046.2 ± 63.1; p < 0.01 vs. amph.; ns vs. contr F(3,34) = 6.5110; p < 0.01 crossings/60 min | decrease of locomotor hyperactivity vs. respective d-amphetamine group ([1]; doses of 5 and 10 mg/kg i.p.): 60–86% | Number of crossings/60 min Mean ± SEM [2, 10]: 1573.6 ± 149.3 crossings/60 min | Number of crossings/60 min Mean ± SEM [2, 11]: 2676.0 ± 336.7; p < 0.01 crossings/60 min | Number of crossings/60 min Mean ± SEM [2, 12]: 1135.8 ± 184.3 F(3,34) = 8.8733; p < 0.001 crossings/60 min | decrease of spontaneous locomotor activity ([2]; 10 mg/kg): about 70% | effect on MK-801-induced hyperlocomotor activity ([3]; 5 mg/kg and 10 mg/kg i.p.): significantly reduced | Number of crossings/60 min Mean ± SEM ([3]; compound 5 mg/kg i.p. 30 min + MK-801 0.2 mg/kg): 2432.8 ± 526.6; ns vs. contr p < 0.01 vs. MK crossings/60 min | Number of crossings/60 min Mean ± SEM ([3]; compound 10 mg/kg i.p. 30 min + MK-801 0.2 mg/kg): 805.4 ± 147.2 ns vs. contr p < 0.0001 vs. MK F(3,30) = 14.206; p < 0.0001 crossings/60 min | Number of punished crossings /1 min Mean ± SEM [4, 11]: 3.1 ± 0.3 crossings/1 min | Number of punished crossings /1 min Mean ± SEM [4, 12]: 2.3 ± 0.4 crossings/1 min | Number of punished crossings /1 min Mean ± SEM [4, 13]: 1.7 ± 0.4; p < 0.05 F(3,35) = 4.2954; p < 0.05 crossings/1 min | IC50 [5]: > 10000 nM | Ki [5]: > 10000 nM | Ki [6]: 43.5 ± 1.3 nM | IC50 [6]: 131 ± 4.4 nM | Immobility time (s) Mean ± SEM [7, 10]: 132.00 ± 2.93 s | Immobility time (s) Mean ± SEM [7, 11]: 149.89 ± 12.7 s | Immobility time (s) Mean ± SEM [7, 12]: 219.67 ± 1.43; p < 0.05 F(3,26) = 7.5750; p < 0.001 s | IC50 [8]: 37 ± 2.1 nM | Ki [8]: 7.4 ± 0.4 nM

C[C@]12N[C@H](Cc3ccccc31)c1ccccc12 [MK-801, reference compound]
Number of crossings/60 min Mean ± SEM ([3]; MK-801 alone 0.2 mg/kg i.p. 15 min before test): 4708.1 ± 522.1; p < 0.01 vs. contr crossings/60 min and 6247.1 ± 1063.8; p < 0.01 vs. contr crossings/60 min and 8757.9 ± 1378; p < 0.00001 vs. contr crossings/60 min and 6329.9 ± 1012.5; p < 0.05 vs. contr crossings/60 min

COc1cc(C(=O)NC2CC3CCC(C2)N3Cc2ccccc2C)nc2ccccc12 (centres unmarked) [Compound 12d]
Number of punished crossings /1 min Mean ± SEM [4, 11]: 3.3 ± 0.3 crossings/1 min | Number of punished crossings /1 min Mean ± SEM [4, 12]: 4.8 ± 0.3 crossings/1 min | Number of punished crossings /1 min Mean ± SEM [4, 13]: 4.7 ± 0.8 F(3,36) = 3.1652; p < 0.05 crossings/1 min | IC50 [5]: > 10000 nM | Ki [5]: > 10000 nM | Ki [6]: 34 ± 1.7 nM | IC50 [6]: 102 ± 4.9 nM | Immobility time (s) Mean ± SEM [7, 10]: 144.22 ± 14.5 s | Immobility time (s) Mean ± SEM [7, 11]: 113.44 ± 14.9 s | Immobility time (s) Mean ± SEM [7, 12]: 150.8 ± 11.4 F(3,32) = 5.5680; NS s | melting point: 54.5 to 55.9 °C | IC50 ([8]; rat brain tissues, read-out: D2 IC50 [nM] ± SEM): > 10000 nM | Ki ([8]; rat brain tissues, read-out: D2 Ki [nM] ± SEM): > 10000 nM

Cc1cccc(CN2C3CCC2CC(NC(=O)c2ccc4ccccc4c2)C3)c1 (centres unmarked) [R = -CH3]
Ki [9]: 231 nM

C[C@H](N)Cc1ccccc1 [d-amphetamine, reference compound]
Number of crossings/60 min Mean ± SEM ([1]; d-amphetamine alone 2.5 mg/kg s.c. 30 min before test): 6819.9 ± 1534.7; p < 0.05 vs. contr crossings/60 min and 6553.1 ± 1214.5; p < 0.001 vs. contr crossings/60 min
